In publication PMC8231118, “Evaluating the Antioxidants, Whitening and Antiaging Properties of Rice Protein Hydrolysates” (Molecules, 2021):
Converted amounts (≈) assume the structure as drawn.

Molecular target: T1, mushroom tyrosinase
T1 construct: gene PPO3
Assay: dopachrome absorbance at […] nm
Type: biochemical
Settings: L-DOPA substrate (1.25 mM solution), 20 mM phosphate pH 6.8, 37 °C, 30 min

In the case of O=C1O[C@H]([C@@H](O)CO)C(O)=C1O [ascorbic acid], the IC50 is reported as 98 µg/mL (≈ 556 µM).
